# Laboratory results: doi:10.1101/2023.09.25.559398v1 (biorxiv, 2023)
# Assays:
# D5R = D5R (Homo sapiens, UniProt P21918); experiment: radioligand competition binding, cell homogenates
# [1] = target: D2longR-mNeonGreen (hD2R-mNeonGreen) (Homo sapiens, UniProt P14416); experiment: molecular brightness, confocal microscopy of intact cells; format: cell-based
# D2longR [2] = target: T1, D2longR (Homo sapiens, UniProt P14416); experiment: Go1-CASE BRET heterotrimer dissociation assay, antagonist mode; format: cell-based
# T1 sequence (P14416 whole entry): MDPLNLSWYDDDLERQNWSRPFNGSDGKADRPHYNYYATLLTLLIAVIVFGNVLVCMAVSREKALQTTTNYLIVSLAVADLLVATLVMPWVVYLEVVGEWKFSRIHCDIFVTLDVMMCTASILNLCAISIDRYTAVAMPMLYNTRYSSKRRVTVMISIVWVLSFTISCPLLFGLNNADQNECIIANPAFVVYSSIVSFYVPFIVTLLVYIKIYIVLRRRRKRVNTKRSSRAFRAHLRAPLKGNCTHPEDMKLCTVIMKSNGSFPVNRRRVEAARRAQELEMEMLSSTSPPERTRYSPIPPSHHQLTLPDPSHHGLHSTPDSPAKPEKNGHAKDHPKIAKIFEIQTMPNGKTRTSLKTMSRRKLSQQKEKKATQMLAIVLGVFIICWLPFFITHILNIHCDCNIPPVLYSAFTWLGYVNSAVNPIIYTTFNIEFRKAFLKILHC
# D2longR [3] = target: T1, D2longR; experiment: radioligand competition binding, cell homogenates
# D1R = D1R (Homo sapiens, UniProt P21728); experiment: radioligand competition binding, cell homogenates
# Chain of D1R (P21728 whole entry): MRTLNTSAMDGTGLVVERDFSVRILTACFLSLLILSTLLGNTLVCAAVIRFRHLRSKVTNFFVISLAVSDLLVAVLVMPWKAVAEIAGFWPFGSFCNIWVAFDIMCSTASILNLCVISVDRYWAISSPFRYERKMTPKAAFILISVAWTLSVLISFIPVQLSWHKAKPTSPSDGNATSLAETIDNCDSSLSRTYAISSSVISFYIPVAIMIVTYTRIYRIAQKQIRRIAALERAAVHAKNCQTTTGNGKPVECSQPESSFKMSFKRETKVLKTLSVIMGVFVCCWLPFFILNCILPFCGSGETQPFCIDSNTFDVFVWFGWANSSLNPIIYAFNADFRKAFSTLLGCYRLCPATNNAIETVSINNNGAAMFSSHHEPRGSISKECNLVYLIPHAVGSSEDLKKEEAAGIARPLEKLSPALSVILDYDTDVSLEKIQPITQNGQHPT
# D4R (D4.4R) = target: T2, D4R (D4.4R) (Homo sapiens, UniProt P21917); experiment: radioligand competition binding, cell homogenates
# T2 sequence (P21917 1-419): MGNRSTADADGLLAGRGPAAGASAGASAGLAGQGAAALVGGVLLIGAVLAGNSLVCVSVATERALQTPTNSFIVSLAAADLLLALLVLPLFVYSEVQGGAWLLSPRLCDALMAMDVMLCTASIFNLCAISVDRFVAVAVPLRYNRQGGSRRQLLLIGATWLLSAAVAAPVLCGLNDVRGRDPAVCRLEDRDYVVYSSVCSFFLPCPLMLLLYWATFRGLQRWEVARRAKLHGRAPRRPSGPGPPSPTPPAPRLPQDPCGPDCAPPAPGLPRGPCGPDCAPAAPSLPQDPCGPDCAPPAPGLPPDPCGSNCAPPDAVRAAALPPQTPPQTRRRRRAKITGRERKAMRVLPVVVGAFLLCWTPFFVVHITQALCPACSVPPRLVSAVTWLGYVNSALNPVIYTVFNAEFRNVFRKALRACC
# D3R = D3R (Homo sapiens, UniProt P35462); experiment: radioligand competition binding, cell homogenates
# Chain of D3R (P35462 whole entry): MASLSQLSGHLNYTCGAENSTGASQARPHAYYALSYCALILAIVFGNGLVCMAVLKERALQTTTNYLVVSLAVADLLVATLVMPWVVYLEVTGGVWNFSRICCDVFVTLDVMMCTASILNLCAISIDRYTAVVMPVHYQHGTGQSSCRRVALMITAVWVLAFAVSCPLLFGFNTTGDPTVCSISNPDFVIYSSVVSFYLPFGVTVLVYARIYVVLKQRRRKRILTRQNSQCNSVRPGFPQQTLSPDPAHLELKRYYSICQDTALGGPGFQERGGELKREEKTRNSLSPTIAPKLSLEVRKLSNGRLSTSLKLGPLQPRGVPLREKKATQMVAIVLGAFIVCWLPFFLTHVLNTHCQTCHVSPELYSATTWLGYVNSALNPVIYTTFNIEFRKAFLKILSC
# D4R = target: T3, D4R (Homo sapiens, UniProt P21917); experiment: Go1-CASE BRET heterotrimer dissociation assay, antagonist mode; format: cell-based
# T3 sequence (P21917 1-419): T2 sequence (P21917 1-419)
# Chain of D5R (P21918 whole entry): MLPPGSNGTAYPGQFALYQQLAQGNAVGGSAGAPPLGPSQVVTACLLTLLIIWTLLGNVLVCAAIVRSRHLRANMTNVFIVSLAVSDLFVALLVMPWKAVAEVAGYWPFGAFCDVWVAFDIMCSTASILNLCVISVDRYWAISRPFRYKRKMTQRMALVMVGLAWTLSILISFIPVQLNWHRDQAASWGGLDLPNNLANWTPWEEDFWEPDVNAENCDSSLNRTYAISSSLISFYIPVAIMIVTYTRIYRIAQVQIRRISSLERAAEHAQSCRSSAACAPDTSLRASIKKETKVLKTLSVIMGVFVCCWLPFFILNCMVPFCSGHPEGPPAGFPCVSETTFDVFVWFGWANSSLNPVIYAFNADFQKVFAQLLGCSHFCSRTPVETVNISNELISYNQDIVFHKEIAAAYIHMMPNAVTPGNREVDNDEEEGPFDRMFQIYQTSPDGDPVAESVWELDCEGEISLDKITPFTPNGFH
# Chain of D2longR-mNeonGreen (hD2R-mNeonGreen) (P14416 whole entry): as the sequence (P14416 whole entry) above
SMILES,Ki (D5R) [nM],Kd [1] [nM],Kb (D2longR [2]) [nM],Ki (D2longR [3]) [nM],Ki (D1R) [nM],Ki (D4R (D4.4R)) [nM],Ki (D3R) [nM],Kb (D4R) [nM],"pKi (D2longR [3]; displacement of […] [3H]N-methylspiperone, room temperature, […] min, N = […])"
"CN(C)c1ccc2c(-c3ccc(C(=O)NCCCC(=O)Nc4ccc(CCN5CN(c6ccccc6)C6(CCN(CCCC(=O)c7ccc(F)cc7)CC6)C5=O)cc4)cc3C(=O)[O-])c3ccc(=[N+](C)C)cc-3oc2c1 [compound 20, 2-(6-(Dimethylamino)-3-(dimethyliminio)-3H-xanthen-9-yl)-5-((4-((4-(2-(8-(4-(4-fluorophenyl)-4-oxobutyl)-4-oxo-1-phenyl-1,3,8-triazaspiro[4.5]decan-3-yl)ethyl)phenyl)amino)-4-oxobutyl)carbamoyl)benzoate dihydrotrifluoracetate]",331,7.59,0.0295,5.75,67.6,16.6,2.63,1.66,
"CN(C)c1ccc2c(-c3ccc(C(=O)NCCCOCCOCCOCCCNC(=O)CCC(=O)Nc4ccc(CCN5CN(c6ccccc6)C6(CCN(CCCC(=O)c7ccc(F)cc7)CC6)C5=O)cc4)cc3C(=O)[O-])c3ccc(=[N+](C)C)cc-3oc2c1 [compound 17, 2-(6-(Dimethylamino)-3-(dimethyliminio)-3H-xanthen-9-yl)-5-((18-((4-(2-(8-(4-(4-fluorophenyl)-4-oxobutyl)-4-oxo-1-phenyl-1,3,8-triazaspiro[4.5]decan-3-yl)ethyl)phenyl)amino)-15,18-dioxo-4,7,10-trioxa-14-azaoctadecyl)carbamoyl)benzoate dihydrotrifluoroacetate]",> 3160,,,5.62,331,29.5,5.13,,
COCC[N+]1=C(C=CC=C2N(CCCCCC(=O)NCCCOCCOCCOCCCNC(=O)CCC(=O)Nc3ccc(CCN4CN(c5ccccc5)C5(CCN(CCCC(=O)c6ccc(F)cc6)CC5)C4=O)cc3)c3ccc(S(=O)(=O)[O-])cc3C2(C)CCCS(=O)(=O)O)C(C)(CCCS(=O)(=O)O)c2cc(S(=O)(=O)O)ccc21 (centres unmarked) [compound 16],,,,,,,,,6.67 ± 0.07
